Results from US11685726B2, “Pharmaceutical compositions of 6-(2-(2H-tetrazol-5-yl)ethyl)-6-fluorodecahydroisoquinoline-3-carboxylic acid and ester derivatives thereof” (Sea Pharmaceuticals LLC, priority 2020, dated 2023).

What was measured:
AMPA receptor = test: Whole cell patch-clamp recording of s-AMPA induced currents in pyramidal neurons of rat brain prefrontal cortex slices; assay type: cell-based; details: 20 μM s-AMPA, rat brain cortex slices
Protocol: Additionally biological activity of compounds as antagonists of AMPA receptors or NMDA receptors (also called ionotropic glutamate-gated ion channels) were conducted using ex vivo functional electrophysiological assays of pyramidal neurons in slices of rat brain prefrontal cortex. Effects of test compounds cf. reference compounds were studied by whole cell patch-clamp electrophysiology recordings of s-AMPA-induced currents or NMDA-induced currents, respectively, using rat brain slice prefrontal cortex (layer V) pyramidal neurons.
Male Sprague Dawley rats were supplied by Charles River Laboratories (Wilmington, Mass. USA) and were housed 4 per cage within a temperature (20.5-23.5° C.) and humidity (30-80%) controlled environment on a 12 hour light/dark cycle with access to food (Teklad Global Soy Protein, Cat. No. T.2920X10, Envigo, Indianapolis, Ind., USA) and water ad libitum. At 4-6 weeks of age rats were terminally anaesthetized using isofluorane [(1-chloro-2,2,2-trifluoroethyl difluoromethyl ether) supplied by Baxter Healthcare Corp, Deerfield, Ill., USA], and decapitated. The brain was removed and 300 μm thick coronal prefrontal cortex (PFC) or sagittal hippocampal slices were sectioned using a Vibratome microtome. After brain removal, and throughout slicing, the tissue was submerged in ice cold […] cerebrospinal fluid (aCSF). Once slices were cut, they were transferred to a beaker containing aCSF and left at room temperature for a minimum of 1 hour before commencing electrophysiological recordings. After this period, individual slices were transferred to a recording chamber continuously perfused with aCSF at a rate of 4-6 mL/min before commencing experiment protocols. aCSF composition (in mM): NaCl, 127; KCl, 1.9; KH2PO4, 1.2; CaCl2), 2.4; MgCl2, 1.3; NaHCO3, 26; D-glucose, 10; in water equilibrated with 95% Oxygen gas-5% CO2 gas (reagent suppliers listed below). Experiments investigating NMDA currents had aCSF supplemented with 10 μM glycine (reagents suppliers listed below). All experiments were conducted following protocols with the approval of an Institutional Animal Care and Use Committee (IACUC).
Whole cell patch-clamp recordings were performed from Layer V prefrontal cortex pyramidal neurons at room temperature using the ‘visualized’ version of the patch-clamp technique. […]
All test compound experiments were carried out in the voltage-clamp recording configuration of the whole cell patch-clamp technique and all recordings performed at a holding potential of −60 mV. Recordings were monitored on a Dell personal computer (PC) running Axon pClamp software (Molecular Devices, Sunnyvale, Calif., USA) and digitized at 10 kHz. […]

[1] = In vitro stability in physiological buffers with or without fatty acid free BSA; assay type: physicochemical; details: 30 minutes at 37 degrees C
[2] = Tested at 1 pM (so in the source)

Row | stability in physiological buffers [1] | Structure (SMILES) | % inhibition +/- SEM of s-AMPA induced currents in neurons (AMPA receptor; [2]) | % inhibition +/- SEM of s-AMPA induced currents in neurons (AMPA receptor; Tested at 10 pM (so in the source))
1 |  | O=C(O)[C@@H]1C[C@H]2C[C@@](F)(CCc3nnn[nH]3)CC[C@H]2CN1 [Compound 1, (3S,4aS,6S,8aR)-6-fluoro-6-[2-(1H-1,2,3,4-tetrazol-5-yl)ethyl]-decahydroisoquinoline-3-carboxylic acid] | 55.6 ± 5.8 (n = 3) % | >90 (n = 1) %
2 | stable | O=C(O)[C@@H]1C[C@H]2CC(F)(CCc3nnn[nH]3)CC[C@H]2CN1 (stereo in doubt) [Compound 2, (3S,4aS,6R,8aR)-6-fluoro-6-[2-(1H-1,2,3,4-tetrazol-5-yl)ethyl]-decahydroisoquinoline-3-carboxylic acid] | 21.4 ± 2.1 (n = 3) % | 
